Patent US8486974B2 (priority 2007, dated 2013)
“Also recorded” adds a separate entry of the source. Read-outs that look alike come from different tables or passages of the source.

Assays:
[1] = tested on: ADP-induced platelet aggregation; test: ADP-induced platelet aggregation in PRP; assay type: cell-based, human
Procedure: (§1) Blood was collected from healthy volunteers who had not taken any drugs known to affect platelet function for at least 14 days prior to the study. Platelet rich plasma (PRP) and washed platelet suspensions (2.5×10^8 platelets/ml) were prepared from blood as previously described.
(§2) Platelet aggregation was measured by light aggregometry as previously described. Briefly, PRP and washed platelet samples (2.5×10^8/ml) were placed in a whole blood ionized calcium lumi-aggregometer (Chronolog Corp., Havertown, Pa., U.S.A), and (BIO/DATA CORPORATION) and incubated for 10 min at 37° C., with stirring at 900 r.p.m., prior to the addition of aggregating agents. Aggregation was initiated by the addition of agonists, and monitored by Aggro-Link software for at least 6 min. For experiments using inhibitors, aggregation was initiated after 10 min preincubation with these compounds
(§3) Collagen at different concentrations (3-5 ug/ml) was also used to induce platelet aggregation. The submaximal concentrations of agonists, i.e. the concentrations that gave approximately 95% of the maximal aggregation were used to study the effects of inhibitors of aggregation. Results were expressed in percent changes in maximal light transmission, with 100% representing light transmission of platelet medium alone.

[2] = tested on: platelet aggregation in human whole blood; test: Whole blood aggregation studies (impedance method); assay type: cell-based
Procedure: A 500 μl aliquot of blood was mixed with 500 μl of physiological saline and allowed to incubate at 37° C. for 10 mins in the incubation well of a Chrono-Log Whole Blood Aggregometer model 591/592. The sample was then transferred to the assay well, baseline was established and appropriate volume of reagent as above was added. Aggregation was monitored over 6 mins with impedance output recorded on a chart recorder. When testing inhibitors whole blood was pre-incubated with appropriate concentrations of inhibitor in DMSO at 37° C. for a specified length of time before adding the stimulant (10 mins with stirring). Three different aggregating agents, AA (0.5 mM), ADP (10 μM) and Collagen (5 μg/ml) were used. […] DMSO in high concentrations (above 0.25%) can induce a concentration dependent change in platelet cytoplasmic ionised calcium. Before each experiment a control was run using PRP to obtain normal aggregating responses. A sample was also incubated for 10 min at 37° C. with 10 μl DMSO to ensure it was having no inhibitory effect on the aggregation response.

[3] = tested on: typical digestive proteases; test: Stability in the presence of digestive proteases; assay type: in vitro ADME
[4] = tested on: rabbit liver carboxylesterase; assay type: in vitro ADME; settings: 0.1 mM
[5] = assay type: in vitro ADME; settings: 0.1 mM, pH 7.4
Procedure: Pooled plasma/serum solutions (4 ml) were prepared to the correct strength by dilution of plasma with phosphate buffer pH 7.4 (e.g. for a 10% solution 0.4 ml of plasma/serum was added to 3.6 ml of phosphate buffer pH 7.4). Following equilibration of the plasma/serum sample at 37±0.5° C. 100 μl of a stock solution of test compound in acetonitrile (1×10^−4 M) was added and 250 μl aliquots were removed at specified time intervals. Samples were transferred to 1.5 ml Eppendorf tubes containing 500 μl of a 2% w/v solution of nSO4.7H2O (water:acetonitrile, 1:1). Tubes were vortexed for 2 minutes, then centrifuged at 10,000 rpm for 3 minutes at room temperature. Supernatant was aspirated off and analysed by HPLC. The concentration of test compound and metabolites were determined with reference to calibration curves run on that day in the same concentration range and under the same experimental conditions. In order to mimic conditions during the first passage of the drugs after intestinal absorption selected compounds were incubated in phosphate buffer at 37° C. in the presence of microsomes from human liver (HLM) and intestinal epithelium (HIM). The metabolic fate of the esters under these conditions was also determined by RPHPLC by measuring the concentration of drug and metabolites in the medium as a function of time. The identity of participating enzymes was confirmed by using purified enzyme in the case of plasma (BuChE) and by repeating the hydrolysis experiments in the presence of esterase specific inhibitors—isoOMPA for BuChE and BNPP for carboxylesterase. The BuChE activity of plasma and microsomal samples was determined using the Ellman assay (Ellman et al., 1964).
Qualitative hydrolysis screening of Is-2-aspirinate-5-salicylate 2 (0.1 mM) was studied using guinea pig, hamster, rabbit and monkey plasma. The purpose of this test was to determine a suitable species for biological testing and preclinical development. The results were also expected to confirm the role of the human enzymes already identified because these are variously distributed in laboratory animals.

[6] = tested on: collagen-induced human platelet aggregation; test: Collagen-induced human platelet aggregation in vitro; assay type: cell-based; settings: listed as ISAS
Procedure: as §1, §2, §3

Q: For `CC(=O)Oc1ccccc1C(=O)O[C@H]1CO[C@H]2[C@@H]1OC[C@H]2OC(=O)c1ccccc1O` [Compound 2, Isosorbide-2-aspirinate-5-salicylate], which “potency relative to aspirin, inhibition of ADP-induced platelet aggregation” value [1] is on record?
A: The value was “significantly more potent than aspirin”.

Q: And the IC50 ([2]; Homo sapiens, Platelet, arachidonic acid, impedance method, read-out: IC50, platelet aggregation towards arachidonic acid in human whole blood)?
A: Its IC50 is 17 µM.

Q: What about the “potency in inhibition of platelet aggregation in whole blood” value ([2]; all of the aggregatory stimuli: AA (0.5 mM), ADP (10 μM), Collagen (5 μg/ml)) of the same molecule?
A: Its value is “significantly greater potency than aspirin or ISDA”.

Q: And the “stability in the presence of typical digestive proteases” value [3]?
A: Its value is “stable”.

Q: What about the “Drug disappearance” value [4] of the same molecule?
A: The value was 5 min.

Q: What about the Drug disappearance time ([5]; guinea pig, 1 hr) of the same molecule?
A: Its Drug disappearance time is “present after 1 hr”.

Q: What about the “Drug disappearance time” value ([5]; hamster) of the same molecule?
A: Its value is 20 min.

Q: What about the “Drug disappearance time” value ([5]; monkey) of the same molecule?
A: The value was 5 min.

Q: What about the “potency relative to aspirin, inhibition of collagen-induced human platelet aggregation” value [6] of the same molecule?
A: The value was “significantly more potent than aspirin; also recorded: significantly more potent than ASA”.
